Test [1] deals with non-secreted Metridia luciferase. The test can be described thus: non-secreted Metridia luciferase activity in HeLa cell lysates. The test is classed as biochemical. The following applies: for signal intensity: chelator in lysis buffer without salt, 30 or 120 min lysis, FIGS. 10A, 10B; for light units (% of those obtained using 0.1% NP40): detergent type and concentration varied, 40 or 120 min, FIGS. 14A, 14B; for increase in activity between 30 and 120 min lysis: salt 150 mM in lysis buffer, % of light units at 30 min lysis, FIG. 26. Here is the method: HeLa cells stably expressing either non-secreted and destabilized Gaussia or non-secreted and destabilized Metridia luciferase were plated onto 96-well plates and incubated overnight. Medium was removed and the cells lysed in 20 ul of lysis buffer per well. The lysis buffer comprised; 25 mM Tris pH 8.1; 0.1% NP40; 63.4 uM Na-Oxalate; 5% Glycerol plus the concentration and type of salt indicated in FIG. 4. Replicate samples were assayed for luciferase activity after 30 minutes following addition of the lysis buffer by injecting 60 ul of assay buffer. The assay buffer comprised 25 mM Tris pH 7.75; 2 mM Ascorbate; 24 uM Cz. Results were expressed as a % of the light units obtained in the absence of salt (see FIG. 4).
Luciferase assays were performed as described in Example 5 with either non-secreted and destabilized Gaussia luciferase or non-secreted and destabilized Metridia luciferase. Two experiments are shown as separate graphs, with results shown as relative luminescence in counts per second (CPS) (see FIGS. 5A and 5B). Within each experiment, the lysis buffer and assay buffer differed only in the amount and type of salt added as indicated. Replicate samples were analysed at 120 min after addition of the lysis buffer (LB) by injecting 60 ul of assay buffer (AB).
Luciferase assays were performed with non-secreted and destabilized Metridia luciferase as described in Example 5, except the lysis buffer contained no salt and but contained the indicated type and concentration of chelators. Replicate luciferase assay were carried out after a 30 or 120 min lysis period. Results from the 30 min time point were expressed as a % of the light units obtained in the absence of chelator (see FIG. 10A) and results from the 120 min time point were expressed as % of the light units obtained with the same lysis buffer at 30 min (see FIG. 10B).
HeLa cells expressing destabilised, non-secreted Gaussia or non-secreted Metridia luciferases were plated in equal aliquots onto 96-well plates and incubated overnight. Medium was removed and the cells lysed in 20 ul of lysis buffer. The detergent type and concentration was varied as indicated. Luciferase assays were carried out by injecting 60 ul of assay buffer comprising 25 mM Tris pH 8.1; 1 mM EDTA, 2 mM Ascorbate; 24 uM Cz Two experiments are shown, in the first the lysis buffer also contained 5% glycerol, 64 uM sodium oxalate, 150 mM NaBr, 25 mM Tris pH 8.5, 5 mM EDTA, 0.6 mM reduced glutathione, 0.4 mM oxidised glutathione, 75 mM urea (v6) and luciferase activity was assayed at 40 min. In the second experiment, the lysis buffer also contained 2 5 mM Tris pH 8.1, 63.4 uM Na-oxalate, 150 mM NaBr, 5% Glycerol and the luciferase activity was assayed at 120 min. Results were expressed as the % of the light units obtained using 0.1% NP40 (see FIGS. 14A and 14B). […]
HeLa cells expressing destabilised, non-secreted Metridia luciferase were plated in equal aliquots onto 96-well plates and incubated overnight.

Test [2] relates to non-secreted Gaussia luciferase. Nature of the test: non-secreted Gaussia luciferase activity in HeLa cell lysates. The test is classed as biochemical. The following applies: for signal intensity with detergent in lysis buffer: detergent 0.1% in lysis buffer unless otherwise indicated, FIGS. 13A-C; for light units (% of those obtained using 0.1% NP40): detergent type and concentration varied, 40 or 120 min, FIGS. 14A, 14B; for signal intensity: chelator type and concentration varied, 30 min lysis, FIG. 9; for stability of luciferase activity between 20 and 90 min after onset of cell lysis: salt and EDTA in lysis buffer, % of light units at 20 min lysis, FIG. 7; for light output (% of light units obtained in the absence of salt): salt in lysis buffer, assayed 40 min after lysis buffer, FIG. 3. Here is the method:
HeLa cells stably expressing non-secreted and destabilized Gaussia luciferase were plated onto 96-well plates and incubated overnight. Medium was removed and the cells lysed in 30 ul of lysis buffer per well. The lysis buffer (LB) comprised; 25 mM Tris pH 7.8; 0.1% NP40; 1 mM EDTA plus NaBr at concentrations of (from left to right) 0 mM, 150 mM, 0 mM and 75 mM. Luciferase activity was assayed by injecting 30 ul of an assay buffer (AB) comprising 25 mM Tris pH 7.8; 40 uM Cz plus NaBr at concentrations of (from left to right) 0 mM, 0 mM, 150 mM and 75 mM. Thus, the final concentration of NaBr was 75 mM in all samples, except the no salt controls. Results were expressed as relative light units (RLU) (See FIG. 2).
HeLa cells stably expressing non-secreted and destabilized Gaussia luciferase were plated onto 96-well plates and incubated overnight. Medium was removed and the cells lysed in 20 ul of lysis buffer per well. The lysis buffer comprised; 25 mM Tris pH 8.1, 1 mM EDTA; 0.1% NP40; 63.4 uM Na-Oxalate; 5% Glycerol plus the concentration and type of salt indicated in FIG. 3. Luciferase activity was assayed at 40 min after addition of the lysis buffer (by injecting 60 ul of an assay buffer comprising 25 mM Tris pH 8.1; 1 mM EDTA, 2 mM Ascorbate; 26 uM Cz. Results were expressed as a % of the light units obtained in the absence of salt (see FIG. 3). […]
Luciferase assays were performed as described in Example 4. All salts were present at 150 mM in lysis buffer.
Luciferase assays were performed as described in Example 7, except using the indicated concentrations of salt and EDTA in the lysis buffer. Replicate samples were assayed for luciferase activity at 20, 30, 40 and 90 min after addition of lysis buffer. Results were expressed as a % of the light units obtained after 20 min lysis in the same lysis buffer (see FIG. 7).
Luciferase assays were performed as described in Example 8, except using lysis buffer containing 150 mM NaBr and the indicated concentration of EDTA. Two experiments are shown as separate graphs, with results shown as relative light units (RLU) (see FIGS. 8A and 8B). Within each experiment, the same assay buffer was used for all samples and the lysis buffer differed only in the amount of EDTA as indicated. Replicate samples were assayed for activity of non-secreted Gaussia luciferase at 30 or 120 min after addition of lysis buffer.
Luciferase assays were performed as described in Example 9, except using the indicated type and concentration of chelator and a 30 min lysis period.
HeLa cells expressing destabilised, non-secreted Gaussia luciferase were plated in equal aliquots onto 96-well plates and incubated overnight. Three experiments are shown as separate graphs (FIGS. 13A, 13B and 13C). Within each experiment, the same assay buffer was used for all samples and the lysis buffer differed only in the type of detergent used (0.1% in lysis buffer unless otherwise indicated).
HeLa cells expressing destabilised, non-secreted Gaussia or non-secreted Metridia luciferases were plated in equal aliquots onto 96-well plates and incubated overnight. Medium was removed and the cells lysed in 20 ul of lysis buffer. The detergent type and concentration was varied as indicated.

The target in a further test is Renilla luciferase (Renilla reniformis, UniProt P27652). The following applies: EDTA in lysis buffer, 30 min; FIG. 12. As to the method:
(§1) HeLa cells expressing Firefly or Renilla luciferases were plated into 96-well plates and incubated overnight. Medium was removed and the cells lysed in 20 ul of lysis buffer containing 25 mM Tris pH 8.1; 0.1% NP40; 63.4 uM Na-Oxalate; 5% Glycerol, 150 mM NaCl plus the concentration of EDTA in FIG. 12. Replicate samples were assayed for luciferase activity at 30 min by injecting 30 ul of Firefly assay buffer II containing Firefly substrate followed by 30 ul of Promega's “Stop and Glo” buffer containing Renilla substrate. Results are expressed as a % of the light units obtained in the absence of EDTA (see FIG. 12).

The target of another test is Firefly luciferase (Photinus pyralis, UniProt P08659). Particulars: EDTA in lysis buffer, 30 min; FIG. 12. Here is the method:
as §1

The subject of test [3] is secreted Gaussia luciferase. The test can be described thus: secreted Gaussia luciferase activity in conditioned medium of transfected HeLa cells. In kind it is biochemical. The following applies: salt in assay buffer, 26 uM Cz, pH 8.1; FIG. 1.
Description: HeLa cells were transiently transfected with a plasmid expressing native, secreted Gaussia luciferase and 24 hrs later the conditioned medium was collected. Wells of a 96-well plate were loaded with 20 ul of conditioned medium and assayed for luciferase activity by injecting 60 ul of an assay buffer comprising 26 uM Cz; pH 8.1 plus the salt as indicated in FIG. 1. Results were expressed as a % of the light units obtained in the absence of salt (FIG. 1).
Test [4] has as its system non-secreted Gaussia luciferase. Nature of the test: non-secreted Gaussia luciferase activity in HeLa cell lysates. The test is classed as biochemical. The following applies: 50-100 mM urea in lysis buffer, glutathione in both buffers; FIG. 24.

“Also recorded” adds a separate entry of the source.

Sequence of Firefly luciferase (P08659 whole entry): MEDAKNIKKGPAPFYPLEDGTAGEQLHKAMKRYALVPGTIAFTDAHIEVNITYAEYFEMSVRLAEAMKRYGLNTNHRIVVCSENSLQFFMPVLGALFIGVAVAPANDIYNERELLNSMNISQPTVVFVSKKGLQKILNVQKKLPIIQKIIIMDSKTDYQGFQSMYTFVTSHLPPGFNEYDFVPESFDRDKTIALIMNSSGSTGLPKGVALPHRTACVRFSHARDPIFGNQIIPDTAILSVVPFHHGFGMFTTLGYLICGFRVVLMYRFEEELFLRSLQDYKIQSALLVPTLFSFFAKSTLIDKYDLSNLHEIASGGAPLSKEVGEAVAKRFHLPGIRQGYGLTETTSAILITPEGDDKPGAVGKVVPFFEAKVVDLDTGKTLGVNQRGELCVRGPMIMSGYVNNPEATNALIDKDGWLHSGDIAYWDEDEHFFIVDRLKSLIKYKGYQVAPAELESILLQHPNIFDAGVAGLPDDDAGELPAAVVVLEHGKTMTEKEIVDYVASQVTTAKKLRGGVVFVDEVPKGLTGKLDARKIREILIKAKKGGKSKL
Sequence of Renilla luciferase (P27652 whole entry): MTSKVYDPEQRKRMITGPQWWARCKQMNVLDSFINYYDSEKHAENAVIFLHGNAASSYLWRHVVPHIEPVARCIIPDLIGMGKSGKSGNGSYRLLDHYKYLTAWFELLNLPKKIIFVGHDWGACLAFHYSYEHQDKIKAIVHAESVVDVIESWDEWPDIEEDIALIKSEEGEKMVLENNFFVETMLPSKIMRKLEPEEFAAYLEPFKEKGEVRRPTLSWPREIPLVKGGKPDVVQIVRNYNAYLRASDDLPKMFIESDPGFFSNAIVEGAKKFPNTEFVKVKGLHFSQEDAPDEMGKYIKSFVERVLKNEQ

`O=C(O)CN(CC(=O)O)C1CCCCC1N(CC(=O)O)CC(=O)O` (stereo not drawn) [CDTA]: the signal intensity entry in test [1] is “concentration-dependent beneficial effect on signal intensity”.
With `C[C@H](CCC(=O)NCCC[N+](C)(C)CCCS(=O)(=O)[O-])[C@H]1CC[C@H]2[C@@H]3[C@H](O)C[C@@H]4C[C@H](O)CC[C@]4(C)[C@H]3C[C@H](O)[C@]12C` [CHAPS], in test [2], the “signal intensity with detergent in lysis buffer” value (shortened to “signal intensity with detergent”) was “appeared not to lyse the cells at 0.1%” and the “light units (% of those obtained using 0.1% NP40)” value is given as “insufficient to lyse the cells”. Also, the “light units (% of those obtained using 0.1% NP40)” value in test [1] is “insufficient to lyse the cells; also recorded: highest activity for non-secreted Metridia luciferase”.
Turning to `CCCCCCCCCCCCCCCC[N+](C)(C)C.[Br-]` [CTAB], the “effect of cationic detergent on signal intensity” value in test [2] (data not shown, luciferase not specified, stated under Example 15) is “strong inhibitory effect on signal intensity”.
As to `C[C@H](CCC(=O)[O-])[C@H]1CC[C@H]2[C@@H]3CC[C@@H]4C[C@H](O)CC[C@]4(C)[C@H]3C[C@H](O)[C@]12C.[Na+]` [DOC], the “signal intensity with detergent” value in test [2] is “do not perform well”. Also, the “light units (% of those obtained using 0.1% NP40)” value in test [2] and in test [1] was “concentration-dependent inhibition on signal intensity. This effect was most evident” throughout.
In the case of `O=C(O)CN(CCN(CC(=O)O)CC(=O)O)CC(=O)O` [EDTA], in test [2], the signal intensity result is “concentration-dependent beneficial effect on signal intensity”; the “stability of luciferase activity between 20 and 90 min after onset of cell lysis” value is listed as “far more stable (and therefore more desirable) level of luciferase activity”. In test [2] (lysis buffer with 150 mM NaBr and varied EDTA, 30 or 120 min, FIGS. 8A, 8B), the “signal intensity and stability of signal over time in lysis buffer” value is “benefit of higher amounts of EDTA in terms of both signal intensity and the stability of the luciferase signal over time in lysis buffer”. Moreover, in test [1], the signal intensity entry was “concentration-dependent beneficial effect on signal intensity”; the “increase in activity between 30 and 120 min lysis” value is reported as “performed considerably better”. In addition, at Renilla luciferase, the “light units (% of those obtained in the absence of EDTA)” value is listed as “does not provide the same beneficial effect on signal intensity”. Besides, the “light units (% of those obtained in the absence of EDTA)” value at Firefly luciferase is “clearly decreases the activity of Firefly luciferase”.
As to `O=C(O)CN(CCOCCOCCN(CC(=O)O)CC(=O)O)CC(=O)O` [EGTA], the signal intensity result in test [2] and in test [1] was “concentration-dependent beneficial effect on signal intensity” each time.
On to `[Br-].[Na+]` [NaBr, sodium bromide], for which, in test [2] (NaBr in lysis buffer or assay buffer, final 75 mM, FIG. 2), the “luciferase activity (RLU)” value is “enhances activity of non-secreted Gaussia luciferase, especially when included in lysis buffer”. Further, the “stability of luciferase activity between 20 and 90 min after onset of cell lysis” value in test [2] is recorded as “far more stable (and therefore more desirable) level of luciferase activity”. In addition, the “light output (% of light units obtained in the absence of salt)” value in test [2] is “superior enhancement to NaCl”; in test [3], “higher than with either NaCl or no salt”; in test [1] (salt in lysis buffer, assayed 30 min after lysis buffer, FIG. 4), “superior enhancement to NaCl”. The “increase in activity between 30 and 120 min lysis” value in test [1] is given as “performed better than NaCl”.
As for `[Cl-].[Na+]` [NaCl], the “light output (% of light units obtained in the absence of salt)” value in test [2] is “increased light output compared to no salt”. The “increase in activity between 30 and 120 min lysis” value in test [1] is on record as “more than 1200%”.
Consider `CCCCCCCCCCCCOS(=O)(=O)[O-].[Na+]` [SDS], for which the “signal intensity with detergent” value in test [2] was “do not perform well”. For the same molecule, the “light units (% of those obtained using 0.1% NP40)” value in test [2] and in test [1] was “blocks enzymatic activity; also recorded: concentration-dependent inhibition on signal intensity. This effect was most evident” throughout.
For the molecule `N[C@@H](CCC(=O)N[C@@H](CS)C(=O)NCC(=O)O)C(=O)O` [reduced glutathione], the “rate at which luciferase acquires maximum activity during cell lysis; signal” value in test [2] (total glutathione and reduced:oxidized ratio varied, 20 or 60 min, FIG. 21) is recorded as “somewhat reduced signal was seen at 60 minutes”.
For `NC(N)=O` [urea], in test [4], the “increase in signal between 15 and 60 min lysis” value is “increase was less pronounced”.
Turning to NP40, the “effect of % NP40 in lysis buffer on signal strength” value in test [2] (FIGS. 16A, 16B) is on record as “signal strength declined with increasing amounts of detergent”. Besides, in test [2], the “signal intensity with detergent” value is reported as “highest signal intensity” and the “light units (% of those obtained using 0.1% NP40)” value is reported as “highest signal intensity”. In addition, the “light units (% of those obtained using 0.1% NP40)” value in test [1] is on record as “highest signal intensity”.
For the molecule Triton X100, the “light units (% of those obtained using 0.1% NP40)” value in test [2] and in test [1] was “highest signal intensity” each time.

These data come from patent USRE47607E1, “Luciferase signal enhancing compositions” (GENE STREAM PTY LTD, priority 2006, dated 2019).
